Laboratory results reported in patent US20170066797A1, “WITHAFERIN A ANALOGS AND USES THEREOF” (Whitehead Institute for Biomedical Research, priority 2008, published 2017).

Tests used:
[1] = system: Human umbilical vein endothelial cells (HUVEC); experiment: Endothelial cell network (tube) formation on Matrigel; type: cell-based; details: 16 h, FIG. 6
Procedure: FIG. 6. […] Human umbilical vein endothelial cells (HUVEC) were seeded into Matrigel-coated wells and allowed to adhere for 1 h. Adherent cells were exposed to the indicated concentrations of withaferin A, epi-withaferin A (α-WA) or an equal volume of solvent vehicle (DMSO) for 16 h. Cells were washed 1× in PBS and fixed to visualize tube formation by light microscopy.

[2] = system: Ewing's sarcoma cells (CHP-100); details: 72 hours, MTT, FIG. 5
Source text: Relative viable cell number was quantified by MTT assay. Results are presented as a percentage compared to wells exposed to DMSO alone. […] Points: mean of triplicate determinations; Error bars: s.d.

[3] = system: WI-38 fibroblasts; experiment: Detection of F-actin aggregation (phalloidin staining); type: cell-based, Human; details: 4 μM, 4 or 24 h, FIG. 3
Procedure: FIGS. 3A-3D. Induction of F-actin aggregation. Following incubation with test compounds for the indicated intervals, WI-38 fibroblasts were fixed and stained with fluorescently-labeled phalloidin (green signal) to visualize the actin cytoskeleton. Cells were counterstained with DAPI (blue signal) to identify their nuclei. All images were acquired using the same magnification and exposure conditions. Data are representative of two independent experiments. (A) DMSO, 24 h incubation. (B) Withaferin A, 4 h. (C) 2,3-Dihydrowithaferin A-3β-O-sulfate, 4 h. (D) 2,3-Dihydrowithaferin A-3β-O-sulfate, 24 h.
Cells were seeded in 8-well chamber slides at a density of 2×10^4 cells per well and allowed to adhere for 48 h. Compounds 1 and 2 were freshly prepared as 5 mM stock solutions in DMSO and applied to cells at a final concentration of 4 μM in RPMI culture medium supplemented with 10% fetal bovine serum, Glutamax™, and penicillin/streptomycin. Control wells were treated with an equal volume of DMSO, not exceeding 0.2% in culture media. Cells were incubated for 4 or 24 h in the continuous presence of the indicated compounds, then washed twice with PBS, fixed with 4% paraformaldehyde/PBS (pH 7.6), and permabilized with 0.1% triton-X 100/PBS. […]

[4] = Conversion of 2,3-dihydrowithaferin A-3β-O-sulfate to withaferin A in cell culture media (HPLC); type: physicochemical; details: DMEM + 10% fetal bovine serum, 37° C., 4, 16, 24 h, FIG. 2
Procedure: FIGS. 2A and 2B. Conversion of 2,3-dihydrowithaferin A-3β-O-sulfate (solid circles) to withaferin A (solid squares) in cell culture medium. (A) Incubation of 2,3-dihydrowithaferin A-3β-O-sulfate in DMEM supplemented with 10% fetal bovine serum. (B) Incubation in cysteine/methionine-free DMEM supplemented with 10% fetal bovine serum. The concentration of 2,3-dihydrowithaferin A-3β-O-sulfate (solid circles) and its conversion to withaferin A (solid squares) was measured over time by HPLC using an external standard curve method.
Stock solutions of 2,3-dihydrowithaferin A-3β-O-sulfate in DMSO (50 μL) were diluted into cell culture medium (950 μL) to achieve the indicated starting concentration, mixed thoroughly and the solution incubated in a CO2 incubator at 37° C. Aliquots (100 μL) were withdrawn at 4, 16, and 24 h and subjected to HPLC analysis for 2,3-dihydrowithaferin A-3β-O-sulfate (RRT=18.5 min) and withaferin A (RRT=23.5 min) on a Kromasil C18 RP column (250×4.6 mm, […]) with gradient elution using 40-100% aqueous MeOH and using an ELSD detector. An external standard curve method was used to calculate the concentration of each compound in the sampled aliquots (Khajuria, et al., J Sep. Sci. (2004) 27: 541-546, incorporated herein by reference).

[5] = system: PC-3M (metastatic prostate cancer); experiment: Proliferation/survival assay, PC-3M; type: cell-based; details: same time dependence as in MCF-7
Procedure: (§1) A standard tetrazolium dye [3-(4,5-di-methylthiazol-2-yl)-2,5-diphenyltetrazoliumbromide; MTT]-based colorimetric assay was used to measure the proliferation/survival of cells in triplicate wells using a 96-well plate-based format. […] Cells were exposed continuously to test compounds for 24 or 72 h at which times related viable cell number per well was determined as previously described (Wijeratne, et al., J Nat. Prod. (2003) 66: 1567-1573, incorporated herein by reference).

[6] = system: MCF-7 breast cancer cells; experiment: MTT proliferation/survival (cytotoxicity) assay, MCF-7; type: cell-based
Source text: FIG. 1. Concentration- and time-dependent cell proliferation/survival inhibition by 2,3-dihydrowithaferin A-3β-O-sulfate (WA-SO4) and withaferin A (WA). MCF-7 breast cancer cells were exposed to the indicated concentrations of compounds and relative viable cell number determined by dye reduction assay after the time intervals noted. Data are representative of three independent experiments.
as §1

[7] = system: NCI-H460 (non small cell lung); experiment: Proliferation/survival assay, NCI-H460; type: cell-based; details: same time dependence as in MCF-7
Procedure: as §1

[8] = system: minimal heat shock response element derived from the promoter region of the Hsp70B gene; experiment: Heat shock reporter (EGFP) induction; type: cell-based; details: overnight exposure, FIG. 8
Procedure: FIG. 8. Heat shock reporter induction measured by micro plate fluorimeter. Reporter cells stably transduced with a plasmid encoding enhanced green fluorescent protein (EGFP) under the control of a minimal heat shock response element were exposed to 2,3-dihydrowithaferin A-3β-O-sulfate (WA-SO4) or withaferin A (WA) at the indicated concentrations overnight. Relative fluorescence units (RFU) per well were determined as a measure of reporter activation. Each point represents the mean of nine determinations from three independent experiments.
Immortalized mouse embryo fibroblasts derived from homozygous Hsf1 knockout mice or their wild type littermates were exposed overnight to equitoxic concentrations of 1 or the known heat shock-inducing Hsp90 inhibitor gendanamycin. Whole cell lysates were prepared in non-ionic detergent buffer and immunoblotted for relative levels of Hsp72, a highly inducible member of the Hsp70 family of molecular chaperones, using monoclonal antibody C92F3A-5 (StressMarq Biosciences, Victoria, BC). Reactivity was detected using peroxidase-conjugated secondary antibody and chemiluminescent detection. To evaluate the relative ability of compounds to induce a heat shock response at the transcriptional level, a reporter cell line was used as previously described (Turbyville, et al., J. Nat. Prod. (2006) 69: 178-184, incorporated herein by reference). […]

In the case of CC1=C(CO)C(=O)OC([C@@H](C)C2CCC3C4C[C@H]5O[C@]56[C@H](O)C=CC(=O)[C@]6(C)C4CC[C@@]32C)C1 (stereo partly drawn) [epi-withaferin A], the “inhibition of endothelial cell network formation” value [1] is reported as “Inhibition of endothelial cell network formation” and the “inhibition of tumor cell growth in vitro, CHP-100” value [2] is reported as “Concentration-dependent inhibition of tumor cell growth in vitro”.

With CC1=C(CO)C(=O)OC(C(C)C2CC[C@H]3[C@@H]4C[C@H]5O[C@]56[C@@H](O)[C@@H](OS(=O)(=O)O)CC(=O)[C@]6(C)[C@H]4CC[C@]23C)C1 (stereo partly drawn) [2,3-dihydrowithaferin A-3β-O-sulfate] the “induction of F-actin aggregation” value [3] was “induced F-actin aggregation, but dihydrowithaferin A-3β-O-sulfate required a longer period of time”, the “conversion to withaferin A in cell culture media” value [4] was “conversion of dihydrowithaferin A-3β-O-sulfate to withaferin A in cell culture media” and the “proliferation/survival inhibition compared with withaferin A, PC-3M” value [5] was “same results”. The “potency compared with withaferin A, MCF-7” value ([6]; after ca. 72 hours) was “equipotent with withaferin A”, the “inhibition of the proliferation/survival of MCF-7 breast cancer cells” value ([6]; dye reduction (MTT) assay, 24 or 72 h, FIG. 1) was “concentration- and time-dependent inhibition” and the “proliferation/survival inhibition compared with withaferin A, NCI-H460” value [7] was “same results”. The “heat shock reporter induction” value [8] was “induces a robust heat shock response after overnight treatment of cells, albeit at higher concentrations than that of withaferin A”.
